According to ChEMBL document CHEMBL3407420, “In silico studies, synthesis and binding evaluation of substituted 2-pyrrolidinones as peptidomimetics of RGD tripeptide sequence” (Eur J Med Chem, 2015):

Legend:
Integrin alpha-V/beta-5 = Integrin alpha-V/beta-5 (Homo sapiens, UniProt P06756+P18084); experiment: Binding affinity to alphaVbeta5 receptor (unknown origin); assay type: protein-complex assay
Integrin alpha-V/beta-3 = Integrin alpha-V/beta-3 (Homo sapiens, UniProt P05106+P06756); experiment: Displacement of [125I]echistatin from purified human alphaVbeta3 receptor after 3 hrs by gamma counting; assay type: protein-complex assay
Integrin alpha-V/beta-3, sequence (P05106 27-788 limits assumed): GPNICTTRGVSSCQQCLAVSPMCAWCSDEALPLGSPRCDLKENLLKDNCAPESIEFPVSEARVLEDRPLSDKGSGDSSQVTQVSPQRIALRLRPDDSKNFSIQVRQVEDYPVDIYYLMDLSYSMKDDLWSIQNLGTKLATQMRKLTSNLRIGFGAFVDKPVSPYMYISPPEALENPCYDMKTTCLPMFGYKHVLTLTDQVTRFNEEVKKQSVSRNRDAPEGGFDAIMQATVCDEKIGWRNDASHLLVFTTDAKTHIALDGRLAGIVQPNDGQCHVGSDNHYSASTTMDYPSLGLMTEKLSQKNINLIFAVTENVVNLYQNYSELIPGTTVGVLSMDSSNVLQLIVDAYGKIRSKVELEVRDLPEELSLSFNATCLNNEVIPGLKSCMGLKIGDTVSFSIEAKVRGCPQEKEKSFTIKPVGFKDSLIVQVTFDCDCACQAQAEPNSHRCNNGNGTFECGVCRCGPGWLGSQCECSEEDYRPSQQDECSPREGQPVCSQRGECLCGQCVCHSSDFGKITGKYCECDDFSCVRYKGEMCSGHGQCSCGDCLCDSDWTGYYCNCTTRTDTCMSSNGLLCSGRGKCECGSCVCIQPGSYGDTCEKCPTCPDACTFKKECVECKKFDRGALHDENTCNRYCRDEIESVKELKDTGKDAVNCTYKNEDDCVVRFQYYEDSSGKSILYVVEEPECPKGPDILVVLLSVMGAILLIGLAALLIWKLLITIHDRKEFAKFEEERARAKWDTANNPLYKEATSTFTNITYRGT
Integrin alpha-V/beta-3, sequence (P06756 31-889 limits assumed): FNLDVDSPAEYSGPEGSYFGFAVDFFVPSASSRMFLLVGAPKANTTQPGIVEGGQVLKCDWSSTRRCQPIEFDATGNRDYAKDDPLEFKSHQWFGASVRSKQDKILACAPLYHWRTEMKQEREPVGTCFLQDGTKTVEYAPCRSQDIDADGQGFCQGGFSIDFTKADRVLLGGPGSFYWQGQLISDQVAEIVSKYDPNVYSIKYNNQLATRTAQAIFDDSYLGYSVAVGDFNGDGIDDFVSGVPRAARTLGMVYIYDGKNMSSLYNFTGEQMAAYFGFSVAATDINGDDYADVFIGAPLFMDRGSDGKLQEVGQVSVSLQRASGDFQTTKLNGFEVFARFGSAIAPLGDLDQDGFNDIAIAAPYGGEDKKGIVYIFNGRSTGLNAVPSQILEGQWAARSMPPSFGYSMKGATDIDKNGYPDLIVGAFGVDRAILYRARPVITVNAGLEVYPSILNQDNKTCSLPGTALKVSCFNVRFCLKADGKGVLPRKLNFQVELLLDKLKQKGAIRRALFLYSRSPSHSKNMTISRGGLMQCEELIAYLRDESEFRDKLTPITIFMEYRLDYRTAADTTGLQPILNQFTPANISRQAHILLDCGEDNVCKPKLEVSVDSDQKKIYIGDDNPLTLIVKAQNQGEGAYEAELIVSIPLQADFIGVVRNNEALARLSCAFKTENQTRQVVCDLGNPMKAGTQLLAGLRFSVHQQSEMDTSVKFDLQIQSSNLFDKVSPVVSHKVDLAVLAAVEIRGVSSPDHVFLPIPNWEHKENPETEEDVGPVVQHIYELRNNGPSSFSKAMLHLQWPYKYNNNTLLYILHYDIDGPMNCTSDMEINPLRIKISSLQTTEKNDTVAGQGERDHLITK
Integrin alpha-V/beta-3, sequence (P06756 891-1048 limits assumed): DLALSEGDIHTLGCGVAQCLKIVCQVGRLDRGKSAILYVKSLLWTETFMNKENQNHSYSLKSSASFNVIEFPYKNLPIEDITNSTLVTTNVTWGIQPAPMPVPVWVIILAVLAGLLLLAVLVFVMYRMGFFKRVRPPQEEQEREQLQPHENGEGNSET

Integrin alpha-V/beta-5, sequence (P06756 31-889 limits assumed): as the sequence (P06756 31-889 limits assumed) above
Integrin alpha-V/beta-5, sequence (P06756 891-1048 limits assumed): as the sequence (P06756 891-1048 limits assumed) above
Integrin alpha-V/beta-5, sequence (P18084 24-799 limits assumed): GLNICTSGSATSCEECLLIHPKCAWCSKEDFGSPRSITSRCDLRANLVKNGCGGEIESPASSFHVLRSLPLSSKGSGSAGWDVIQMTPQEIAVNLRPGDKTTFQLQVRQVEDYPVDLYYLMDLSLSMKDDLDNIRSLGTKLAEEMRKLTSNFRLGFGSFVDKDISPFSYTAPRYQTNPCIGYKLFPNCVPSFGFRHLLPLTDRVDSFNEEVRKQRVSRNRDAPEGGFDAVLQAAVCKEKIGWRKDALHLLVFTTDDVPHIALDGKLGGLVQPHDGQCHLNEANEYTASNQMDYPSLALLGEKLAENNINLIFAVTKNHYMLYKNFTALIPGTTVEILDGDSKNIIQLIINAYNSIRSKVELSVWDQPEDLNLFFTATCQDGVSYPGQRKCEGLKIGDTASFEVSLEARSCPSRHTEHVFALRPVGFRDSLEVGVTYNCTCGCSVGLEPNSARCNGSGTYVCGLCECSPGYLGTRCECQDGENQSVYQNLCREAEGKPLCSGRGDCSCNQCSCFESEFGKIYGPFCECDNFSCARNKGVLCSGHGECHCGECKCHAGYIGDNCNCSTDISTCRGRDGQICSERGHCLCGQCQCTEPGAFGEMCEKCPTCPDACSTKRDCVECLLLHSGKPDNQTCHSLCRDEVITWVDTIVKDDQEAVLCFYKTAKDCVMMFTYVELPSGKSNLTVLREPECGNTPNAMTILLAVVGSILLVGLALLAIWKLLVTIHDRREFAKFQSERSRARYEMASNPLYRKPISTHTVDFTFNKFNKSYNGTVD

SMILES	IC50 (Integrin alpha-V/beta-5) [µM]	IC50 (Integrin alpha-V/beta-3) [µM]
N=C(N)NCCC[C@@H]1NC(=O)[C@H](CCCCN)NC(=O)[C@@H](Cc2ccccc2)NC(=O)[C@H](CC(=O)O)NC(=O)CNC1=O	30	
N=C(N)NCCC[C@@H]1CCN([C@@H](CCCCNC(=O)OCc2ccccc2)C(=O)NCCC(=O)O)C1=O		100
N=C(N)NCCC[C@@H]1CCN([C@@H](CCCCN)C(=O)NCCC(=O)O)C1=O		50
N=C(N)NCCNC(=O)[C@H](CCCCNC(=O)OCc1ccccc1)N1CC[C@H](CCC(=O)O)C1=O		> 100
